# Measurements reported in patent US20200362309A1, “Method for preparing BAP or BA cells” (Anagenesis Biotechnologies S.A.S., priority 2017, published 2020).
# System: BA cells differentiated from hiPS-derived BAP
# Assay: Lipolysis: free glycerol release by BA cells after forskolin stimulation
# Format: cell-based, human
# Settings: forskolin 10 μM, 24 hours; BAP derived at day 12 or 16, 5 passages, differentiated for 17 days
# Procedure: Lipolysis: The BAP were differentiated for 17 days. Then the cells were maintained for 24 hours in DMEM 1g/Iglucose supplemented with BSA 0,2%. Lipolysis was stimulated with forskolin (10 μM) for 24 hours.
smiles,measurement,value
C=C[C@@]1(C)CC(=O)[C@]2(O)[C@@]3(C)[C@@H](O)CCC(C)(C)[C@@H]3[C@H](O)[C@H](OC(C)=O)[C@@]2(C)O1 [forskolin],"increase of the free glycerol released, treated cells compared to untreated cells",about 60%
